Experimental findings from patent US8609660B2, “4,7-dihydro-pyrazolo[1,5-a]pyrazin-6-ylamine derivatives useful as inhibitors of beta-secretase (BACE)” (Janssen Pharmaceutica NV, priority 2010, dated 2013) are described below.

Assay [1] has as its system Aβ42 produced and secreted into the medium of human neuroblastoma SKNBE2 cells. Kind of assay: Cellular αlisa assay in SKNBE2 cells, Aβ42. It counts as cell-based. Conditions: SKNBE2 cells expressing hAPP695, 18 hours incubation; for IC50: Homo sapiens, SKNBE2, 18 h, read-out: Cellular αlisa assay in SKNBE2 cells Aβ42 pIC50 (converted). On the procedure:
(§1) Cellular αlisa Assay in SKNBE2 Cells In two αlisa assays the levels of Aβtotal and Aβ42 produced and secreted into the medium of human neuroblastoma SKNBE2 cells are quantified. The assay is based on the human neuroblastoma SKNBE2 expressing the wild type Amyloid Precursor Protein (hAPP695). […] Aβtotal and Aβ42 are measured by sandwich α[…] sandwich assay using biotinylated antibody AbN/25 attached to streptavidin coated beads and antibody Ab4G8 or cAb42/26 conjugated acceptor beads for the detection of Aβtotal and Aβ42 respectively. In the presence of Aβtotal or Aβ42, the beads come into close proximity. The excitation of the Donor beads provokes the release of singlet oxygen molecules that triggers a cascade of energy transfer in the Acceptor beads, resulting in light emission. Light emission is measured after 1 hour incubation (excitation at […] and emission at 615 nm). A best-fit curve is fitted by a minimum sum of squares method to the plot of % Controlmin versus compound concentration. […] [formula]

Assay [2] has as its target T1, recombinant BACE1 protein (Homo sapiens, UniProt P56817).
T1 construct: recombinant BACE1 protein in a final concentration of 1 μg/ml
Kind of assay: Biochemical FRET based assay. To be noted: recombinant BACE1 1 μg/ml, 120 min, room temperature, pH 5.0; for IC50: read-out: Biochemical FRET based assay pIC50 (converted). An excerpt: Biochemical FRET Based Assay This assay is a Fluorescence Resonance Energy Transfer Assay (FRET) based assay. The substrate for this assay is an APP derived 13 amino acids peptide that contains the 'Swedish' […] mutation of the amyloid precursor protein (APP) β-secretase cleavage site. […] Upon cleavage by BACE1, the fluorophore Mca is separated from the quenching group Dnp, restoring the full fluorescence yield of the donor. The increase in fluorescence is linearly related to the rate of proteolysis (Koike H et al. J Biochem. 1999, 126, 235-42). Briefly in a 384-well format recombinant BACE1 protein in a final concentration of 1 μg/ml is incubated for 120 minutes at room temperature with 10 μm substrate in incubation buffer (40 mM Citrate buffer pH 5.0, 0.04% PEG, 4% DMSO) in the absence or presence of compound. Next the amount of proteolysis is directly measured by fluorescence measurement at T=0 and T=120 (excitation at 320 nm and emission at 405 nm). […] [formula]

Assay [3] relates to Aβtotal produced and secreted into the medium of human neuroblastoma SKNBE2 cells. As to the kind of experiment: Cellular αlisa assay in SKNBE2 cells, Aβtotal. It counts as cell-based. Conditions: SKNBE2 cells expressing hAPP695, 18 hours incubation; for IC50: Homo sapiens, SKNBE2, 18 h, read-out: Cellular αlisa assay in SKNBE2 cells Aβtotal pIC50 (converted). On the procedure: as §1

T1 sequence (P56817 46-501): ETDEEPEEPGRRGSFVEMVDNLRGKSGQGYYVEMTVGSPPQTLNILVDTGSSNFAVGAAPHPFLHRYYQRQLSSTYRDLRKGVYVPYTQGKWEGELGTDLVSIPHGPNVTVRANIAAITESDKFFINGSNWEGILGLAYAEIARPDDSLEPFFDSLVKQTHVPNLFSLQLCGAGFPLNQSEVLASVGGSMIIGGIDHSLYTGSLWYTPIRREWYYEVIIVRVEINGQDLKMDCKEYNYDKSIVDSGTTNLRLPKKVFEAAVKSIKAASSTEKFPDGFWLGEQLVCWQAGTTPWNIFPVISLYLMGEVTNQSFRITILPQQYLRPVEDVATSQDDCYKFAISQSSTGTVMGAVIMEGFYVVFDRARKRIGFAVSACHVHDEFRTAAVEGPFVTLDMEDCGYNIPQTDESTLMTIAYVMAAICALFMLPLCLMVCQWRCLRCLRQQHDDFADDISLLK

As for `CC1(c2cc(-c3cccc(C#N)c3)c(F)cc2F)N=C(N)Cn2nccc21` (racemic) [Compound 18], the “Cellular αlisa assay in SKNBE2 cells Aβ42 pIC50” value in assay [1] worked out at 5.76. Further, in assay [2], the “Biochemical FRET based assay pIC50” value came to 4.75. Further, the “Cellular αlisa assay in SKNBE2 cells Aβtotal pIC50” value in assay [3] was determined as 5.67.
For `CC1(c2cc(NC(=O)c3ncc(Cl)cc3Cl)ccc2F)N=C(N)Cn2nc(C(F)(F)F)cc21` (single isomer, unassigned) [Compound 29, (S*)—N-{3-[6-amino-4-methyl-2-(trifluoromethyl)-4,7-dihydropyrazolo[1,5-a]pyrazin-4-yl]-4-fluorophenyl}-3,5-dichloropyridine-2-carboxamide], the “Cellular αlisa assay in SKNBE2 cells Aβ42 pIC50” value in assay [1] is on record as less than 5. Moreover, the IC50 in assay [2] was 15500 nM. Moreover, the “Cellular αlisa assay in SKNBE2 cells Aβtotal pIC50” value in assay [3] was less than 5.
Consider `CC1(c2cc(-c3cc(Cl)cc(Cl)c3)ccc2F)N=C(N)Cn2nccc21` (racemic) [Compound 15], for which the “Cellular αlisa assay in SKNBE2 cells Aβ42 pIC50” value in assay [1] was determined as 5.48. Further, the “Biochemical FRET based assay pIC50” value in assay [2] stood at 5.68. Also, in assay [3], the “Cellular αlisa assay in SKNBE2 cells Aβtotal pIC50” value is recorded as 5.52.
Consider `CC1(c2cc(-c3cncc(Cl)c3)ccc2F)N=C(N)Cn2nc(C(F)(F)F)cc21` (single isomer, unassigned) [Compound 25, (R*)-4-[5-(5-chloropyridin-3-yl)-2-fluorophenyl]-4-methyl-2-(trifluoromethyl)-4,7-dihydropyrazolo[1,5-a]pyrazin-6-amine], for which the “Cellular αlisa assay in SKNBE2 cells Aβ42 pIC50” value in assay [1] was 5.5. The IC50 in assay [2] was 3630 nM. In addition, the “Cellular αlisa assay in SKNBE2 cells Aβtotal pIC50” value in assay [3] turned out to be 5.64.
Turning to `COc1cncc(-c2cc(C3(C)N=C(N)Cn4nccc43)c(F)cc2F)c1` (racemic) [Compound 5], the “Cellular αlisa assay in SKNBE2 cells Aβ42 pIC50” value in assay [1] is 6.4. In addition, in assay [2], the “Biochemical FRET based assay pIC50” value worked out at 5.49. Moreover, the “Cellular αlisa assay in SKNBE2 cells Aβtotal pIC50” value in assay [3] is 6.41.
For the compound `CC1(c2cc(-c3ccccc3)c(F)cc2F)N=C(N)Cn2nccc21` (racemic) [Compound 12], the “Cellular αlisa assay in SKNBE2 cells Aβ42 pIC50” value in assay [1] was determined as 5.58. Further, the “Biochemical FRET based assay pIC50” value in assay [2] was 4.88. For the same compound, in assay [3], the “Cellular αlisa assay in SKNBE2 cells Aβtotal pIC50” value worked out at 5.67.
In the case of `CC1(c2cccc(-c3cncnc3)c2)N=C(N)Cn2nccc21` (racemic) [Compound 1, rac-4-methyl-4-(3-pyrimidin-5-ylphenyl)-4,7-dihydropyrazolo[1,5-a]pyrazin-6-amine], the figures for the IC50 in assay [1], in assay [2] and in assay [3] were 457 nM, 3310 nM and 355 nM, respectively.
Regarding `CC1(c2cc(NC(=O)c3ncc(Cl)cc3Cl)ccc2F)N=C(N)Cn2nc(C(F)(F)F)cc21` (single isomer, unassigned) [Compound 28, (R*)—N-{3-[6-amino-4-methyl-2-(trifluoromethyl)-4,7-dihydropyrazolo[1,5-a]pyrazin-4-yl]-4-fluorophenyl}-3,5-dichloropyridine-2-carboxamide], the “Cellular αlisa assay in SKNBE2 cells Aβ42 pIC50” value in assay [1] was determined as 6.99. In addition, the IC50 in assay [2] was 91.2 nM. For the same compound, in assay [3], the “Cellular αlisa assay in SKNBE2 cells Aβtotal pIC50” value is recorded as 7.1.
As to `COc1cnc(C(=O)Nc2ccc(F)c(C3(C4CC4)N=C(N)Cn4nccc43)c2)cn1` (stereo not shown) [Compound 34], in assay [1], the “Cellular αlisa assay in SKNBE2 cells Aβ42 pIC50” value worked out at 7.11. Moreover, the “Biochemical FRET based assay pIC50” value in assay [2] is 6.51. Further, in assay [3], the “Cellular αlisa assay in SKNBE2 cells Aβtotal pIC50” value is given as 7.19.
Turning to `COc1cncc(-c2cccc(C3(C)N=C(N)Cn4nc(C(F)(F)F)cc43)c2)c1` (single isomer, unassigned) [Compound 23, (S*)-4-[3-(5-methoxypyridin-3-yl)-phenyl]-4-methyl-2-(trifluoromethyl)-4,7-dihydropyrazolo[1,5-a]pyrazin-6-amine], the “Cellular αlisa assay in SKNBE2 cells Aβ42 pIC50” value in assay [1] is listed as less than 5. The IC50 in assay [2] is greater than 30200 nM. Also, in assay [3], the “Cellular αlisa assay in SKNBE2 cells Aβtotal pIC50” value is less than 5.
Take `CC1(c2cccc(NC(=O)c3ccc(Cl)cn3)c2)N=C(N)Cn2nccc21` (stereo not shown) [Compound 17]: in assay [1], the “Cellular αlisa assay in SKNBE2 cells Aβ42 pIC50” value came out at 8.09. Moreover, the “Cellular αlisa assay in SKNBE2 cells Aβtotal pIC50” value in assay [3] was 8.08.
`CC1(c2cccc(-c3cc(F)cc(F)c3)c2)N=C(N)Cn2nccc21` (stereo not shown) [Compound 14]: in assay [1], the “Cellular αlisa assay in SKNBE2 cells Aβ42 pIC50” value is reported as 6.09. Moreover, the “Biochemical FRET based assay pIC50” value in assay [2] was found to be 6.11. Also, the “Cellular αlisa assay in SKNBE2 cells Aβtotal pIC50” value in assay [3] amounted to 6.11.
Turning to `COc1cncc(-c2cccc(C3(C)N=C(N)Cn4nccc43)c2)c1` (stereo not shown) [Compound 9], the “Cellular αlisa assay in SKNBE2 cells Aβ42 pIC50” value in assay [1] worked out at 6.93. Also, in assay [2], the “Biochemical FRET based assay pIC50” value came out at 6.05. For the same compound, the “Cellular αlisa assay in SKNBE2 cells Aβtotal pIC50” value in assay [3] is reported as 6.94.
For `COc1cnc(C(=O)Nc2ccc(F)c(C3(C)N=C(N)Cn4nc(C(F)(F)F)cc43)c2)cn1` (single isomer, unassigned) [Compound 32], in that order: 6.56, less than 4.52 and 6.54.
For `CC1(c2cc(-c3cncnc3)ccc2F)N=C(N)Cn2nccc21` (racemic) [Compound 16], in that order: 5.53, 4.98 and 5.48.
With `CC1(c2cccc(NC(=O)c3ccc(Cl)cn3)c2)N=C(N)Cn2nccc21` (racemic) [Compound 3, rac-N-[3-(6-amino-4-methyl-4,7-dihydropyrazolo[1,5-a]pyrazin-4-yl)-phenyl]-5-chloropyridine-2-carboxamide], the IC50 is 10.7 nM in assay [1] and 11.7 nM in assay [3].
With `CC1(c2cccc(-c3cccc(OC(F)(F)F)c3)c2)N=C(N)Cn2nccc21` (stereo not shown) [Compound 19], in assay [1], the “Cellular αlisa assay in SKNBE2 cells Aβ42 pIC50” value is given as 5.81. Besides, the “Biochemical FRET based assay pIC50” value in assay [2] is given as 5.77. Moreover, the “Cellular αlisa assay in SKNBE2 cells Aβtotal pIC50” value in assay [3] is on record as 5.91.
For `COc1cnc(C(=O)Nc2ccc(F)c(C3(C)N=C(N)Cn4nc(C(F)(F)F)cc43)c2)cn1` (single isomer, unassigned) [Compound 31], in that order: 6.92, 6.73 and 6.99.
`CC1(c2cc(-c3cncc(Cl)c3)ccc2F)N=C(N)Cn2nc(C(F)(F)F)cc21` (single isomer, unassigned) [Compound 26, (S*)-4-[5-(5-chloropyridin-3-yl)-2-fluorophenyl]-4-methyl-2-(trifluoromethyl)-4,7-dihydropyrazolo[1,5-a]pyrazin-6-amine]: the “Cellular αlisa assay in SKNBE2 cells Aβ42 pIC50” value in assay [1] was less than 5. In addition, in assay [2], the IC50 was greater than 30200 nM. For the same compound, in assay [3], the “Cellular αlisa assay in SKNBE2 cells Aβtotal pIC50” value is listed as less than 5.
Regarding `CC1(c2cc(NC(=O)c3ncc(Cl)cc3Cl)ccc2F)N=C(N)Cn2nc(C(F)(F)F)cc21` (stereo not drawn) [Compound 27, rac-N-{3-[6-amino-4-methyl-2-(trifluoromethyl)-4,7-dihydropyrazolo[1,5-a]pyrazin-4-yl]-4-fluorophenyl}-3,5-dichloropyridine-2-carboxamide], the IC50 in assay [1] is 170 nM; in assay [2], 145 nM; in assay [3], 170 nM.
With `CC1(c2cccc(-c3cncnc3)c2)N=C(N)Cn2nccc21` (stereo not shown) [Compound 8], the “Cellular αlisa assay in SKNBE2 cells Aβ42 pIC50” value in assay [1] is on record as 6.61. Also, in assay [2], the “Biochemical FRET based assay pIC50” value was found to be 5.65. Besides, in assay [3], the “Cellular αlisa assay in SKNBE2 cells Aβtotal pIC50” value came out at 6.54.
For `COc1cccc(-c2cc(C3(C)N=C(N)Cn4nccc43)c(F)cc2F)c1` (racemic) [Compound 6], in that order: 6.06, 5.53 and 6.13.
